Source: PubChem BioAssay AID1963958 (Molecular Pharmacology Branch, DTP, NCI, 2024)

Test system: MDA-MB-231 multicell spheroids, viability
Test: Anticancer human tumor MDA-MB-231 cell line growth inhibition [PI3K];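 also: spheroids exposed to agents for seven days before reading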;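 as to viability, T/C: percent of vehicle control luminescence with DMSO treated spheroids as 100%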
Settings: for IC50: curve of first compound; for viability, T/C: stronger effect = lower value
How it was run: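 Tumor cells grown as multi-cell spheroids with HUVEC endothelial cells and MSC fibroblast-like stroma were treated with targeted agents combined with inavolisib, alpelisib, duvelisib or copanlisib. Doses fell in half-log steps from near clinical Cmax, else from 10 microM. Viability was measured.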

[1] = second compound 0.00316 µM, first compound 0.0316 µM
[2] = second compound 0.00316 µM, first compound 0.1 µM
[3] = second compound 0.01 µM, first compound 0.0316 µM
[4] = second compound 0.01 µM, first compound 0.1 µM
[5] = second compound 0.0316 µM, first compound 0.0316 µM
[6] = second compound 0.0316 µM, first compound 0.1 µM
[7] = second compound 0.1 µM, first compound 0.0316 µM
[8] = second compound 0.1 µM, first compound 0.1 µM
[9] = second compound 0.316 µM, first compound 0.0316 µM
[10] = second compound 0.316 µM, first compound 0.1 µM
[11] = second compound 1 µM, first compound 0.0316 µM
[12] = second compound 1 µM, first compound 0.1 µM

## CC(=O)c1c(C)c2cnc(Nc3ccc(N4CCNCC4)cn3)nc2n(C2CCCC2)c1=O + COc1c(OCCCN2CCOCC2)ccc2c3n(c(=NC(=O)c4cnc(N)nc4)nc12)CCN3
Second compound 0.00316 µM
  IC50: 79.4 nM
Second compound 0.01 µM
  IC50: 37.3 nM
Second compound 0.0316 µM
  IC50: 10.4 nM
Second compound 0.1 µM
  IC50: < 0.316 nM
Second compound 0.316 µM
  IC50: < 0.316 nM
Second compound 1 µM
  IC50: < 0.316 nM
Second compound 0.00316 µM, first compound 0.000316 µM
  viability, T/C: 96.5%
Second compound 0.00316 µM, first compound 0.001 µM
  viability, T/C: 94.8%
Second compound 0.00316 µM, first compound 0.00316 µM
  viability, T/C: 90.4%
Second compound 0.00316 µM, first compound 0.01 µM
  viability, T/C: 85.2%
[1]
  viability, T/C: 69.5%
[2]
  viability, T/C: 45%
Second compound 0.01 µM, first compound 0.000316 µM
  viability, T/C: 80.6%
Second compound 0.01 µM, first compound 0.001 µM
  viability, T/C: 79.9%
Second compound 0.01 µM, first compound 0.00316 µM
  viability, T/C: 73.7%
Second compound 0.01 µM, first compound 0.01 µM
  viability, T/C: 62.5%
[3]
  viability, T/C: 53.6%
[4]
  viability, T/C: 35.9%
Second compound 0.0316 µM, first compound 0.000316 µM
  viability, T/C: 58.4%
Second compound 0.0316 µM, first compound 0.001 µM
  viability, T/C: 59.7%
Second compound 0.0316 µM, first compound 0.00316 µM
  viability, T/C: 54.2%
Second compound 0.0316 µM, first compound 0.01 µM
  viability, T/C: 50.5%
[5]
  viability, T/C: 41.3%
[6]
  viability, T/C: 26.7%
Second compound 0.1 µM, first compound 0.000316 µM
  viability, T/C: 46.9%
Second compound 0.1 µM, first compound 0.001 µM
  viability, T/C: 44.9%
Second compound 0.1 µM, first compound 0.00316 µM
  viability, T/C: 41.3%
Second compound 0.1 µM, first compound 0.01 µM
  viability, T/C: 39.2%
[7]
  viability, T/C: 33.1%
[8]
  viability, T/C: 21.1%
Second compound 0.316 µM, first compound 0.000316 µM
  viability, T/C: 33.4%
Second compound 0.316 µM, first compound 0.001 µM
  viability, T/C: 31%
Second compound 0.316 µM, first compound 0.00316 µM
  viability, T/C: 27.9%
Second compound 0.316 µM, first compound 0.01 µM
  viability, T/C: 27.3%
[9]
  viability, T/C: 20.4%
[10]
  viability, T/C: 16.4%
Second compound 1 µM, first compound 0.000316 µM
  viability, T/C: 25%
Second compound 1 µM, first compound 0.001 µM
  viability, T/C: 25%
Second compound 1 µM, first compound 0.00316 µM
  viability, T/C: 23.5%
Second compound 1 µM, first compound 0.01 µM
  viability, T/C: 24%
[11]
  viability, T/C: 21.6%
[12]
  viability, T/C: 19.6%

## CNC(=O)c1ccc(N2C(=S)N(c3ccc(C#N)c(C(F)(F)F)c3)C(=O)C2(C)C)cc1F + COc1c(OCCCN2CCOCC2)ccc2c3n(c(=NC(=O)c4cnc(N)nc4)nc12)CCN3
Second compound 0.00316 µM
  IC50: > 10000 nM
Second compound 0.01 µM
  IC50: > 10000 nM
Second compound 0.0316 µM
  IC50: > 10000 nM
Second compound 0.1 µM
  IC50: < 31.6 nM
Second compound 0.316 µM
  IC50: < 31.6 nM
Second compound 1 µM
  IC50: < 31.6 nM
[1]
  viability, T/C: 98.3%
[2]
  viability, T/C: 96.5%
Second compound 0.00316 µM, first compound 0.316 µM
  viability, T/C: 98.9%
Second compound 0.00316 µM, first compound 1 µM
  viability, T/C: 97.6%
Second compound 0.00316 µM, first compound 3.16 µM
  viability, T/C: 95.9%
Second compound 0.00316 µM, first compound 10 µM
  viability, T/C: 81.3%
[3]
  viability, T/C: 82.2%
[4]
  viability, T/C: 78.5%
Second compound 0.01 µM, first compound 0.316 µM
  viability, T/C: 82.5%
Second compound 0.01 µM, first compound 1 µM
  viability, T/C: 83.7%
Second compound 0.01 µM, first compound 3.16 µM
  viability, T/C: 72.7%
Second compound 0.01 µM, first compound 10 µM
  viability, T/C: 64.2%
[5]
  viability, T/C: 63%
[6]
  viability, T/C: 64.5%
Second compound 0.0316 µM, first compound 0.316 µM
  viability, T/C: 64.8%
Second compound 0.0316 µM, first compound 1 µM
  viability, T/C: 61.7%
Second compound 0.0316 µM, first compound 3.16 µM
  viability, T/C: 59%
Second compound 0.0316 µM, first compound 10 µM
  viability, T/C: 50.9%
[7]
  viability, T/C: 50.9%
[8]
  viability, T/C: 46.2%
Second compound 0.1 µM, first compound 0.316 µM
  viability, T/C: 48.9%
Second compound 0.1 µM, first compound 1 µM
  viability, T/C: 48.1%
Second compound 0.1 µM, first compound 3.16 µM
  viability, T/C: 46.9%
Second compound 0.1 µM, first compound 10 µM
  viability, T/C: 38.8%
[9]
  viability, T/C: 34.5%
[10]
  viability, T/C: 34.4%
Second compound 0.316 µM, first compound 0.316 µM
  viability, T/C: 34.8%
Second compound 0.316 µM, first compound 1 µM
  viability, T/C: 34.6%
Second compound 0.316 µM, first compound 3.16 µM
  viability, T/C: 32.6%
Second compound 0.316 µM, first compound 10 µM
  viability, T/C: 28.3%
[11]
  viability, T/C: 25.6%
[12]
  viability, T/C: 24.8%
Second compound 1 µM, first compound 0.316 µM
  viability, T/C: 25%
Second compound 1 µM, first compound 1 µM
  viability, T/C: 24.8%
Second compound 1 µM, first compound 3.16 µM
  viability, T/C: 25.1%
Second compound 1 µM, first compound 10 µM
  viability, T/C: 22.9%

## Cn1cnc2c(F)c(Nc3ccc(Br)cc3Cl)c(C(=O)NOCCO)cc21 + COc1c(OCCCN2CCOCC2)ccc2c3n(c(=NC(=O)c4cnc(N)nc4)nc12)CCN3
Second compound 0.00316 µM
  IC50: 184 nM
Second compound 0.01 µM
  IC50: 40.7 nM
Second compound 0.0316 µM
  IC50: < 9.49 nM
Second compound 0.1 µM
  IC50: < 9.49 nM
Second compound 0.316 µM
  IC50: < 9.49 nM
Second compound 1 µM
  IC50: < 9.49 nM
Second compound 0.00316 µM, first compound 0.00949 µM
  viability, T/C: 60%
Second compound 0.00316 µM, first compound 0.03 µM
  viability, T/C: 56.6%
Second compound 0.00316 µM, first compound 0.0949 µM
  viability, T/C: 52.2%
Second compound 0.00316 µM, first compound 0.3 µM
  viability, T/C: 47.5%
Second compound 0.00316 µM, first compound 0.949 µM
  viability, T/C: 41.4%
Second compound 0.00316 µM, first compound 3 µM
  viability, T/C: 29.7%
Second compound 0.01 µM, first compound 0.00949 µM
  viability, T/C: 62.1%
Second compound 0.01 µM, first compound 0.03 µM
  viability, T/C: 46.6%
Second compound 0.01 µM, first compound 0.0949 µM
  viability, T/C: 42.2%
Second compound 0.01 µM, first compound 0.3 µM
  viability, T/C: 40.4%
Second compound 0.01 µM, first compound 0.949 µM
  viability, T/C: 41.7%
Second compound 0.01 µM, first compound 3 µM
  viability, T/C: 23.6%
Second compound 0.0316 µM, first compound 0.00949 µM
  viability, T/C: 45%
Second compound 0.0316 µM, first compound 0.03 µM
  viability, T/C: 43.4%
Second compound 0.0316 µM, first compound 0.0949 µM
  viability, T/C: 38.9%
Second compound 0.0316 µM, first compound 0.3 µM
  viability, T/C: 33.1%
Second compound 0.0316 µM, first compound 0.949 µM
  viability, T/C: 28.8%
Second compound 0.0316 µM, first compound 3 µM
  viability, T/C: 12.9%
Second compound 0.1 µM, first compound 0.00949 µM
  viability, T/C: 33.7%
Second compound 0.1 µM, first compound 0.03 µM
  viability, T/C: 30.3%
Second compound 0.1 µM, first compound 0.0949 µM
  viability, T/C: 27.3%
Second compound 0.1 µM, first compound 0.3 µM
  viability, T/C: 27.1%
Second compound 0.1 µM, first compound 0.949 µM
  viability, T/C: 21%
Second compound 0.1 µM, first compound 3 µM
  viability, T/C: 7.54%
Second compound 0.316 µM, first compound 0.00949 µM
  viability, T/C: 24.3%
Second compound 0.316 µM, first compound 0.03 µM
  viability, T/C: 18.7%
Second compound 0.316 µM, first compound 0.0949 µM
  viability, T/C: 15.8%
Second compound 0.316 µM, first compound 0.3 µM
  viability, T/C: 14.4%
Second compound 0.316 µM, first compound 0.949 µM
  viability, T/C: 12.2%
Second compound 0.316 µM, first compound 3 µM
  viability, T/C: 5.36%
Second compound 1 µM, first compound 0.00949 µM
  viability, T/C: 17.7%
Second compound 1 µM, first compound 0.03 µM
  viability, T/C: 14.2%
Second compound 1 µM, first compound 0.0949 µM
  viability, T/C: 12.5%
Second compound 1 µM, first compound 0.3 µM
  viability, T/C: 9.99%
Second compound 1 µM, first compound 0.949 µM
  viability, T/C: 8.63%
Second compound 1 µM, first compound 3 µM
  viability, T/C: 4.84%
